Results on 25 compounds are retold here after PubChem BioAssay AID328 (DTP/NCI, 2004).

For this assay, the system named is BDF1 mice, P388 leukemia ip, median survival T/C. The experiment in a line: NCI In Vivo Anticancer Drug Screen. Data for tumor model P388 Leukemia (intraperitoneal) in B6D2F1 (BDF1) mice. Conditions: endpoint: median survival time, higher = longer survival. In short, it runs like this:
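Each value expresses how treatment altered survival: treated-mouse outcome over vehicle-mouse outcome, both groups bearing the transplanted tumour.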

Setting [1] is: dose: 50.0 mg/kg/injection, schedule: Q01DX009 (ip), vehicle: saline with Tween-80.
Setting [2] is: dose: 100.0 mg/kg/injection, schedule: Q01DX009 (ip), vehicle: saline with Tween-80.
Setting [3] is: dose: 100.0 mg/kg/injection, schedule: Q04DX003 (ip), vehicle: saline with Tween-80.
Where [4] appears, read: dose: 200.0 mg/kg/injection, schedule: Q01DX009 (ip), vehicle: saline with Tween-80.
Setting [5] is: dose: 200.0 mg/kg/injection, schedule: Q04DX003 (ip), vehicle: saline with Tween-80.
Where [6] appears, read: dose: 400.0 mg/kg/injection, schedule: Q04DX003 (ip), vehicle: saline with Tween-80.
[7] abbreviates: dose: 12.5 mg/kg/injection, schedule: Q01DX009 (ip), vehicle: Klucel (hydroxypropylcellulose) (HPC).
The mark [8] stands for this setting: dose: 100.0 mg/kg/injection, schedule: Q04DX002 (ip), vehicle: saline with Tween-80.
Where [9] appears, read: dose: 200.0 mg/kg/injection, schedule: Q04DX002 (ip), vehicle: saline with Tween-80.
Setting [10] is: dose: 400.0 mg/kg/injection, schedule: Q04DX002 (ip), vehicle: saline with Tween-80.
Where [11] appears, read: dose: 50.0 mg/kg/injection, schedule: Q01DX005 (ip), vehicle: saline with Tween-80.
The mark [12] stands for this setting: dose: 100.0 mg/kg/injection, schedule: Q01DX005 (ip), vehicle: saline with Tween-80.
The mark [13] stands for this setting: dose: 200.0 mg/kg/injection, schedule: Q01DX005 (ip), vehicle: saline with Tween-80.
Where [14] appears, read: dose: 400.0 mg/kg/injection, schedule: Q01DX009 (ip), vehicle: saline with Tween-80.

Values joined by “and” are separate entries in the source; they are usually repeats but may differ in a detail not shown here. Equal entries are not always repeated. Toxic doses and inconclusive results are not listed.

For `CCOC(=O)CC(=Nc1ccccc1OC)C(=O)OCC`, the T/C is, setting by setting: (dose: 100.0 mg/kg/injection, schedule: Q01DX009 (ip), vehicle: Klucel (hydroxypropylcellulose) (HPC)) 86 % of control; (dose: 100.0 mg/kg/injection, schedule: Q04DX003 (ip), vehicle: Klucel (hydroxypropylcellulose) (HPC)) 104 % of control; (dose: 200.0 mg/kg/injection, schedule: Q01DX009 (ip), vehicle: Klucel (hydroxypropylcellulose) (HPC)) 86 % of control; (dose: 200.0 mg/kg/injection, schedule: Q04DX003 (ip), vehicle: Klucel (hydroxypropylcellulose) (HPC)) 95 % of control; (dose: 400.0 mg/kg/injection, schedule: Q01DX009 (ip), vehicle: Klucel (hydroxypropylcellulose) (HPC)) 104 % of control; (dose: 400.0 mg/kg/injection, schedule: Q04DX003 (ip), vehicle: Klucel (hydroxypropylcellulose) (HPC)) 95 % of control.

For `CC(=O)N(C(C)=O)c1ccc(N=Nc2ccccc2C)cc1C`, the T/C by setting is: under setting [1], 90 % of control; under setting [2], 90 % of control; under setting [3], 95 % of control; under setting [4], 86 % of control; under setting [5], 100 % of control; under setting [6], 100 % of control.

For `Cc1ccccc1NC(=O)c1ccc([N+](=O)[O-])cc1`, the T/C reads like this: under setting [3], 96 % of control; under setting [5], 108 % of control; under setting [6], 96 % of control.

Take `CC(=O)OCc1c(COC(C)=O)c(-c2ccc(Cl)c(Cl)c2)n2c1CCC2`: the T/C under setting [7] is 114 % of control.

Take `COC(=O)c1c(Cl)c(Cl)c(C(=O)OC)c(Cl)c1Cl`: the T/C (dose: 25.0 mg/kg/injection, schedule: Q01DX009 (ip), vehicle: saline with Tween-80) is 100 % of control; the T/C under setting [1] was 100 % of control; the T/C under setting [2] is 86 % of control; the T/C under setting [3] was 91 % of control; the T/C under setting [5] was 108 % of control; the T/C (dose: 266.0 mg/kg/injection, schedule: Q04DX003 (ip), vehicle: saline with Tween-80) is 95 % of control. The T/C is, setting by setting: under setting [6], 90 % of control; (dose: 600.0 mg/kg/injection, schedule: Q04DX003 (ip), vehicle: saline with Tween-80) 100 % of control.

For `CCOC(=O)c1cnc(=O)[nH]c1N`, the T/C under setting [1] was 99 % of control.

On to `Cc1onc(-c2c(Cl)cccc2Cl)c1C(=O)Nc1ccccc1CC1c2ccccc2CCN1C` (stereo not given), for which the T/C was 96 % of control under setting [7]; 99 % of control (dose: 25.0 mg/kg/injection, schedule: Q01DX009 (ip), vehicle: Klucel (hydroxypropylcellulose) (HPC)); 89 % of control and 102 % of control (dose: 50.0 mg/kg/injection, schedule: Q01DX009 (ip), vehicle: Klucel (hydroxypropylcellulose) (HPC)).

`O=C(NC1CCC1C(=O)O)OCc1ccccc1` (stereo not given): the T/C reads like this: under setting [8], 101 % of control; under setting [9], 104 % of control; under setting [10], 110 % of control.

`CNC[C@@H](O)c1ccc(O)c(O)c1`: the T/C was 110 % of control (dose: 0.25 mg/kg/injection, schedule: Q04DX003 (ip), vehicle: saline); 91 % of control and 109 % of control (dose: 0.5 mg/kg/injection, schedule: Q01DX009 (ip), vehicle: saline); 110 % of control (dose: 0.5 mg/kg/injection, schedule: Q04DX003 (ip), vehicle: saline); 95 % of control (dose: 1.0 mg/kg/injection, schedule: Q01DX001 (ip), vehicle: saline); 100 % of control (dose: 1.0 mg/kg/injection, schedule: Q01DX009 (ip), vehicle: saline); 105 % of control (dose: 1.0 mg/kg/injection, schedule: Q04DX003 (ip), vehicle: saline). Moreover, the T/C runs as follows: (dose: 2.0 mg/kg/injection, schedule: Q01DX001 (ip), vehicle: saline) 104 % of control; (dose: 2.0 mg/kg/injection, schedule: Q01DX009 (ip), vehicle: saline) 91 % of control and 109 % of control; (dose: 2.0 mg/kg/injection, schedule: Q04DX003 (ip), vehicle: saline) 86 % of control; (dose: 4.0 mg/kg/injection, schedule: Q01DX009 (ip), vehicle: saline) 95 % of control and 100 % of control; (dose: 9.0 mg/kg/injection, schedule: Q01DX009 (ip), vehicle: saline) 95 % of control.

Regarding `CC(=O)[S][Pb]([c]1ccccc1)([c]1ccccc1)[c]1ccccc1`, the T/C was 114 % of control (dose: 4.0 mg/kg/injection, schedule: Q01DX009 (ip), vehicle: Klucel (hydroxypropylcellulose) (HPC)); 110 % of control (dose: 5.9 mg/kg/injection, schedule: Q01DX009 (ip), vehicle: Klucel (hydroxypropylcellulose) (HPC)); 106 % of control (dose: 9.0 mg/kg/injection, schedule: Q01DX009 (ip), vehicle: Klucel (hydroxypropylcellulose) (HPC)).

For the compound `O=C(CSc1nc2ccccc2s1)c1sc2sc3ccccc3[n+]2c1[O-]`, the T/C is 97 % of control under setting [11], 97 % of control under setting [12] and 87 % of control under setting [13].

For the compound `CC1CN(C(=O)Nc2ccc(Cl)cc2)CC(C)O1` (stereo not given), the T/C is 110 % of control (dose: 75.0 mg/kg/injection, schedule: Q01DX009 (ip), vehicle: Klucel (hydroxypropylcellulose) (HPC)); 110 % of control (dose: 150.0 mg/kg/injection, schedule: Q01DX009 (ip), vehicle: Klucel (hydroxypropylcellulose) (HPC)); 120 % of control (dose: 300.0 mg/kg/injection, schedule: Q01DX009 (ip), vehicle: Klucel (hydroxypropylcellulose) (HPC)).

Regarding `CCOC(=O)C(=O)CC(=O)/C=C/c1ccccc1`, the T/C reads like this: under setting [2], 96 % of control; under setting [4], 107 % of control.

For the compound `O=[N+]([O-])c1ccc(N2CCN(c3ccc(Cl)cc3)CC2)c2c1no[n+]2[O-]`, the T/C is 100 % of control (dose: 15.0 mg/kg/injection, schedule: Q01DX009 (ip), vehicle: saline with Tween-80); 99 % of control (dose: 30.0 mg/kg/injection, schedule: Q01DX009 (ip), vehicle: saline with Tween-80); 99 % of control (dose: 60.0 mg/kg/injection, schedule: Q01DX009 (ip), vehicle: saline with Tween-80).

For the compound `O=C1CN(CCc2ccccc2)CC(=O)N2C(c3ccccc3)CCCN12` (stereo not given), the T/C reads like this: under setting [11], 94 % of control; under setting [12], 97 % of control; under setting [13], 97 % of control.

Consider `Cc1ccc(C(=O)O)c(=O)[nH]1`, for which the T/C is, setting by setting: under setting [1], 98 % of control; under setting [2], 95 % of control; under setting [4], 100 % of control; under setting [14], 94 % of control.

On to `N#CCc1ccc2c(c1)[nH]c1ccccc12`, for which the T/C (dose: 50.0 mg/kg/injection, schedule: Q04DX003 (ip), vehicle: saline sonified) was 104 % of control; the T/C (dose: 100.0 mg/kg/injection, schedule: Q04DX003 (ip), vehicle: saline sonified) was 109 % of control; the T/C (dose: 200.0 mg/kg/injection, schedule: Q04DX003 (ip), vehicle: saline sonified) is 104 % of control.

Consider `CCOC(=O)CCC(NC(=O)N(CCCl)CCCl)C(=O)OCC` (stereo not given), for which the T/C by setting is: (dose: 132.0 mg/kg/injection, schedule: Q04DX003 (ip), vehicle: saline with Tween-80) 175 % of control; under setting [5], 204 % of control; (dose: 300.0 mg/kg/injection, schedule: Q04DX003 (ip), vehicle: saline with Tween-80) 183 % of control.

As to `CC(C)(C)c1ccc(/C(N)=N/O)cc1`, the T/C is 92 % of control under setting [11] and 101 % of control under setting [12].

Consider `CCCCN(CCCC)CCC(O)c1cc(-c2ccc(Cl)c(Cl)c2)nc2c(Cl)cc(Cl)cc12` (stereo not given), for which the T/C was 99 % of control under setting [1] and 110 % of control under setting [2].

Turning to `C[n+]1c(-c2ccccc2)c2cc(N)ccc2c2ccc(N)cc21`, the T/C is 171 % of control (dose: 25.0 mg/kg/injection, schedule: Q04DX003 (ip), vehicle: saline with Tween-80) and 90 % of control (dose: 50.0 mg/kg/injection, schedule: Q04DX003 (ip), vehicle: saline with Tween-80).

`O=C(c1ccccn1)C12CC3CC(CC(C3)C1)C2`: the T/C was 95 % of control under setting [3], 105 % of control under setting [5] and 95 % of control under setting [6].

`Cc1c(Cl)cccc1N1C(=O)CC(Sc2ccccc2N)C1=O` (stereo not given): the T/C is 110 % of control under setting [2]; 95 % of control under setting [3]; 105 % of control under setting [4]; 104 % of control under setting [5]; 105 % of control under setting [14]; 109 % of control under setting [6].

Turning to `COC(=O)c1nc2c(C)nc(N(C)C)nc2[nH]c1=O`, the T/C under setting [3] was 101 % of control, the T/C under setting [5] is 107 % of control and the T/C under setting [6] was 100 % of control.

Regarding `CC(CC(Sc1ccccc1)Sc1ccccc1)CC(Sc1ccccc1)Sc1ccccc1`, the T/C is, setting by setting: under setting [8], 100 % of control; under setting [9], 92 % of control; under setting [10], 106 % of control.
